Assay results as given in patent US11518760B2 (Liverpool School of Tropical Medicine, priority 2017, dated 2022).

These molecules were tested on C6/36 Aedes albopictus cell line infected with Wolbachia pipientis (Wolbachia strain wAlbB) (assay: In vitro insect cell line assay (anti-Wolbachia screen, SYTO 11 high content imaging)). Conditions: 168 h; C6/36 Aedes albopictus cells infected with Wolbachia pipientis wAlbB, 7 days incubation, SYTO 11 imaging; read-out: In vitro anti-Wolbachia activity.
Assay type: cell-based
In short: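 SYTO 11 staining (15 min), high-content imaging and texture analysis were the read-out on day 7. Before that, C6/36 mosquito cells carrying Wolbachia strain wAlbB were incubated at 26 °C with test compound at 5 μM final, alongside DMSO-only control wells.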

Row | Structure (SMILES) | EC50 [nM]
1 | FC1(F)CC2(CCN(c3nc(NCc4cccnc4C(F)(F)F)c4cccnc4n3)CC2)C1 [Example 252, 2-(2,2-difluoro-7-azaspiro[3.5]nonan-7-yl)-N-((2-(trifluoromethyl)pyridin-3-yl)methyl)pyrido[2,3-d]pyrimidin-4-amine] | 0.01 to 1
2 | CC(C)Nc1nc(NCc2cccc(F)c2)c2sccc2n1 [Example 14, N^4-(3-fluorobenzyl)-N^2-isopropylthieno[3,2-d]pyrimidine-2,4-diamine] | 100 to 1000
3 | CC(C)Nc1nc(NCc2ccc(Cl)cc2)c2ccccc2n1 [Example 136, N^4-(4-chlorobenzyl)-N^2-isopropylquinazoline-2,4-diamine] | 1000 to 100000
4 | CC(C)Sc1nc(NCc2cccnc2C(F)(F)F)c2cccnc2n1 [Example 164, 2-(isopropylthio)-N-((2-(trifluoromethyl)pyridin-3-yl)methyl)pyrido[2,3-d]pyrimidin-4-amine] | 1 to 10
5 | FC(F)(F)c1ccccc1C1CCCN1c1ncnc2ccsc12 (stereo not drawn) [Example 79] | 100 to 1000
6 | O=C(Nc1cccc(F)c1)Nc1nc(NCc2cccnc2C(F)(F)F)c2cccnc2n1 [Example 205, 1-(3-fluorophenyl)-3-(4-(((2-(trifluoromethyl)pyridin-3-yl)methyl)amino)pyrido[2,3-d]pyrimidin-2-yl)urea] | 10 to 100
7 | CS(=O)(=O)C1CCN(c2nc(NCc3cccnc3C(F)(F)F)c3cccnc3n2)CC1 [Example 232, 2-(4-(methylsulfonyl)piperidin-1-yl)-N-((2-(trifluoromethyl)pyridin-3-yl)methyl)pyrido[2,3-d]pyrimidin-4-amine] | 100 to 1000
8 | NC(=O)c1nc(NCc2ccccc2C(F)(F)F)c2sccc2n1 [Example 155, 4-((2-(trifluoromethyl)benzyl)amino)thieno[3,2-d]pyrimidine-2-carboxamide] | 1000 to 100000
9 | FC(F)(F)c1ccccc1CNc1nc(N2CC3CC(C2)O3)nc2ncccc12 [Example 300, 2-(6-oxa-3-azabicyelo[3.1.1]heptan-3-yl)-N-(2-(trifluoromethyl)benzyl)pyrido[2,3-d]pyrimidin-4-amine] | < 0.01
10 | COc1ccc2c(NCc3cccnc3C(F)(F)F)nc(N3CCOCC3C)nc2n1 (stereo not drawn) [Example 305, 7-methoxy-2-(3-methylmorpholino)-N-((2-(trifluoromethyl)pyridin-3-yl)methyl)pyrido[2,3-d]pyrimidin-4-amine] | 1000 to 100000
11 | CC(C)Nc1nc(NCc2ccc(S(C)(=O)=O)cc2)c2ncccc2n1 [Example 123, N^2-isopropyl-N^4-(4-(methylsulfonyl)benzyl)pyrido[3,2-d]pyrimidine-2,4-diamine] | 1000 to 100000
12 | CC(C)Nc1nc(NCc2cccnc2C(F)(F)F)c2cccnc2n1 [Example 150, N^2-isopropyl-N^4-((2-(trifluoromethyl)pyridin-3-yl)methyl)pyrido[2,3-d]pyrimidine-2,4-diamine] | 10 to 100
13 | CC(C)Nc1nc(N(C)Cc2cccnc2C(F)(F)F)c2cccnc2n1 [Example 160, N^2-isopropyl-N^4-methyl-N4-((2-(trifluoromethyl)pyridin-3-yl)methyl)pyrido[2,3-d]pyrimidine-2,4-diamine] | 10 to 100
14 | CN(Cc1ccccc1C(F)(F)F)c1nc(C(F)(F)F)nc2ccsc12 [Example 62, N-methyl-2-(trifluoromethyl)-N-(2-(trifluoromethyl)benzyl)thieno[3,2-d]pyrimidin-4-amine] | 10 to 100
15 | FC(F)(F)c1ncccc1CNc1nc(N2CCCC23CCC3)nc2ncccc12 [Example 298] | < 0.01
16 | C[C@@H]1COCCN1c1nc(N2CCC2c2ccccc2C(F)(F)F)c2cccnc2n1 (stereo partly drawn) [Example 290, (3R)-3-methyl-4-(4-(2-(2-(trifluoromethyl)phenyl)azetidin-1-yl)pyrido[2,3-d]pyrimidin-2-yl)morpholine] | 0.01 to 1
17 | FC(F)(F)c1ccccc1CNc1nc(NCCN2CCCC2)nc2ccsc12 [Example 91, N^2-(2-(pyrrolidin-1-yl)ethyl)-N^4-(2-(trifluoromethyl)benzyl)thieno[3,2-d]pyrimidine-2,4-diamine] | 1000 to 100000
18 | CC(Nc1ncnc2ccsc12)c1ccccc1Cl (stereo not drawn) [Example 38, N-(1-(2-chlorophenyl)ethyl)thieno[3,2-d]pyrimidin-4-amine] | 1000 to 100000
19 | FC(F)(F)c1ncccc1CNc1nc(N2CC3CC(C2)O3)nc2ncccc12 [Example 293, 2-(6-oxa-3-azabicyclo[3.1.1]heptan-3-yl)-N-((2-(trifluoromethyl)pyridin-3-yl)methyl)pyrido[2,3-d]pyrimidin-4-amine] | 1 to 10
20 | CC(C)Nc1nc(NCc2ccc(C(F)(F)F)nc2)c2ncccc2n1 [Example 125, N^2-isopropyl-N^4-((6-(trifluoromethyl)pyridin-3-yl)methyl)pyrido[3,2-d]pyrimidine-2,4-diamine] | 1000 to 100000
21 | COc1ccc(CNc2nc(NC(C)C)nc3ccccc23)cc1 [Example 138, N^2-isopropyl-N^4-(4-methoxybenzyl)quinazoline-2,4-diamine] | 1000 to 100000

Row | Structure (SMILES) | EC50 [nM]
22 | CNCc1nc(NCc2ccccc2C(F)(F)F)c2sccc2n1 [Example 154, 2-((methylamino)methyl)-N-(2-(trifluoromethyl)benzyl)thieno[3,2-d]pyrimidin-4-amine] | 1000 to 100000
23 | FC(F)(F)c1ncccc1CNc1nc(N2CCC2)nc2ncccc12 [Example 163, 2-(azetidin-1-yl)-N-((2-(trifluoromethyl)pyridin-3-yl)methyl)pyrido[2,3-d]pyrimidin-4-amine] | 10 to 100
24 | FC(F)(F)c1ncccc1CNc1nc(N2CCC(Cl)C2)nc2ncccc12 (stereo not drawn) [Example 265, 2-(3-chloropyrrolidin-1-yl)-N-((2-(trifluoromethyl)pyridin-3-yl)methyl)pyrido[2,3-d]pyrimidin-4-amine] | < 0.01
25 | CC(C)N(C)c1nc(NCc2cccnc2C(F)(F)F)c2cccnc2n1 [Example 162, N^2-isopropyl-N^2-methyl-N^4-((2-(trifluoromethyl)pyridin-3-yl)methyl)pyrido[2,3-d]pyrimidine-2,4-diamine] | 0.01 to 1
26 | COc1ccc(CNc2nc(NC(C)C)nc3ccccc23)cc1OC [Example 140, N^4-(3,4-dimethoxybenzyl)-N^2-isopropylquinazoline-2,4-diamine] | 100 to 1000
27 | FC(F)(F)c1ccccc1CNc1nc(N2CCOCC23CCCC3)nc2ncccc12 [Example 286, 2-(9-oxa-6-azaspiro[4.5]decan-6-yl)-N-(2-(trifluoromethyl)benzyl)pyrido[2,3-d]pyrimidin-4-amine] | 100 to 1000
28 | CN1CCN(CCNc2nc(NCc3ccccc3C(F)(F)F)c3sccc3n2)CC1 [Example 92, N^2-(2-(4-methyipiperazin-1-yl)ethyl)-N^4-(2-(trifluoromethyl)benzyl)thieno[3,2-d]pyrimidine-2,4-diamine] | 1000 to 100000
29 | CC(C)Nc1nc(NCc2ccc(Cl)cc2)c2sccc2n1 [Example 19, N^4-(4-chlorobenzyl)-N^2-isopropylthieno[3,2-d]pyrimidine-2,4-diamine] | 1000 to 100000
30 | FC(F)(F)c1cccnc1CNc1ncnc2ccsc12 [Example 61, N-((3-(trifluoromethyl)pyridin-2-yl)methyl)thieno[3,2-d]pyrimidin-4-amine] | 1000 to 100000
31 | N#CC1CN(c2nc(NCc3ccccc3C(F)(F)F)c3cccnc3n2)CCO1 (stereo not drawn) [Example 283, 4-(4-((2-(trifluoromethyl)benzyl)amino)pyrido[2,3-d]pyrimidin-2-yl)morpholine-2-carbonitrile] | 0.01 to 1
32 | FC(F)(F)c1ncccc1CNc1nc(N2CCCCC23CC3)nc2ncccc12 [Example 296, 2-(4-azaspiro[2.5]octan-4-yl)-N-((2-(trifluoromethyl)pyridin-3-yl)methyl)pyrido[2,3-d]pyrimidin-4-amine] | < 0.01
33 | CC(C)Nc1nc(NCc2ccc(C#N)cc2)c2cccnc2n1 [Example 126, N^4-(4-cyanobenzyl)-N^2-isopropylpyrido[2,3-d]pyrimidine-2,4-diamine] | 100 to 1000
34 | CC(C)Nc1nc(NCc2ccc(C(F)(F)F)cc2)c2ccccc2n1 [Example 111, N^2-isopropyl-N^4-(4-(trifluoromethyl)benzyl)quinazoline-2,4-diamine] | 1000 to 100000
35 | FC1CN(c2nc(NCc3cccnc3C(F)(F)F)c3cccnc3n2)C1 [Example 200, 2-(3-fluoroazetidin-1-yl)-N-((2-(trifluoromethyl)pyridin-3-yl)methyl)pyrido[2,3-d]pyrimidin-4-amine] | 10 to 100
36 | CC(C)[S+]([O-])c1nc(NCc2cccnc2C(F)(F)F)c2cccnc2n1 (stereo not drawn) [Example 178, 2-(isopropylsulfinyl)-N-((2-(trifluoromethyl)pyridin-3-yl)methyl)pyrido[2,3-d]pyrimidin-4-amine] | 1000 to 100000
37 | CC(C)Nc1nc(NCc2ccc(C#N)cc2)c2ccccc2n1 [Example 120, N^4-(4-cyanobenzyl)-N^2-isopropylquinazoline-2,4-diamine] | 100 to 1000
38 | FC(F)(F)c1ccc(CNc2nc(Cl)nc3ccccc23)cn1 [Example 115] | 1000 to 100000
39 | Cc1ccc(Nc2nc(NC(C)C)nc3ccsc23)c(C)c1 [Example 32, N^4-(2,4-dimethylphenyl)-N^2-isopropylthieno[3,2-d]pyrimidine-2,4-diamine] | 1000 to 100000
40 | FC(F)(F)c1ncccc1CNc1nc(N2CCOC3(CCCC3)C2)nc2ncccc12 [Example 272, 2-(6-oxa-9-azaspiro[4.5]decan-9-yl)-N-((2-(trifluoromethyl)pyridin-3-yl)methyl)pyrido[2,3-d]pyrimidin-4-amine] | 0.01 to 1
41 | CC1COCCN1c1nc(NCc2cccnc2C(F)(F)F)c2cccnc2n1 (stereo not drawn) [Example 193, 2-(3-methylmorpholino)-N-((2-(trifluoromethyl)pyridin-3-yl)methyl)pyrido[2,3-d]pyrimidin-4-amine] | 1 to 10
42 | CC1COCCN1c1nc(N2CCC2c2cccnc2C(F)(F)F)c2cccnc2n1 (stereo not drawn) [Example 219, 3-methyl-4-(4-(2-(2-(trifluoromethyl)pyridin-3-yl)azetidin-1-yl)pyrido[2,3-d]pyrimidin-2-yl)morpholine] | 1 to 10
